Results taken from PubChem BioAssay (NCI).
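Exposure lasted 48 hours, with cells grown in 96-well plates and compounds tested at five concentrations. Here, GI50 denotes the concentration required for 50% inhibition of growth. TGI is the concentration that stops growth completely.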

Columns and labels:
Experiment in all cases: NCI anticancer screen, dose series, 48 h
OVCAR-4 ovarian = test system: OVCAR-4 ovarian
M14 melanoma = test system: M14 melanoma
LOX IMVI melanoma = test system: LOX IMVI melanoma
PC-3 prostate = test system: PC-3 prostate
IGROV1 ovarian = test system: IGROV1 ovarian
SK-OV-3 ovarian = test system: SK-OV-3 ovarian
EKVX NSCLC = test system: EKVX NSCLC
HL-60(TB) leukemia = test system: HL-60(TB) leukemia
OVCAR-3 ovarian = test system: OVCAR-3 ovarian
NCI-H522 lung = test system: NCI-H522 lung
SNB-75 CNS = test system: SNB-75 CNS
COLO 205 colon = test system: COLO 205 colon
MDA-MB-435 = test system: MDA-MB-435
SK-MEL-28 melanoma = test system: SK-MEL-28 melanoma
OVCAR-5 ovarian = test system: OVCAR-5 ovarian
U251 CNS = test system: U251 CNS
SK-MEL-5 melanoma = test system: SK-MEL-5 melanoma
786-0 renal = test system: 786-0 renal
HCT-15 colon = test system: HCT-15 colon
MALME-3M melanoma = test system: MALME-3M melanoma
K-562 leukemia = test system: K-562 leukemia
MCF7 breast = test system: MCF7 breast
MOLT-4 leukemia = test system: MOLT-4 leukemia
SN12C renal = test system: SN12C renal
OVCAR-8 ovarian = test system: OVCAR-8 ovarian
SNB-19 CNS = test system: SNB-19 CNS
T-47D breast = test system: T-47D breast
DU-145 prostate = test system: DU-145 prostate
RXF 393 renal = test system: RXF 393 renal
ACHN renal = test system: ACHN renal
UO-31 renal = test system: UO-31 renal
UACC-257 melanoma = test system: UACC-257 melanoma
HCT-116 colon = test system: HCT-116 colon
HT29 colon = test system: HT29 colon
NCI/ADR-RES ovarian = test system: NCI/ADR-RES ovarian
SF-268 CNS = test system: SF-268 CNS
SK-MEL-2 melanoma = test system: SK-MEL-2 melanoma
SW-620 colon = test system: SW-620 colon
NCI-H460 lung = test system: NCI-H460 lung
KM12 colon = test system: KM12 colon
SF-539 CNS = test system: SF-539 CNS
CAKI-1 renal = test system: CAKI-1 renal
BT-549 breast = test system: BT-549 breast
RPMI-8226 leukemia = test system: RPMI-8226 leukemia
HS 578T breast = test system: HS 578T breast
UACC-62 melanoma = test system: UACC-62 melanoma
MDA-MB-231 breast = test system: MDA-MB-231 breast
A549 NSCLC = test system: A549 NSCLC
CCRF-CEM leukemia = test system: CCRF-CEM leukemia
TK-10 renal = test system: TK-10 renal
HCC-2998 colon = test system: HCC-2998 colon
SR leukemia = test system: SR leukemia
NCI-H226 lung = test system: NCI-H226 lung
HOP-62 NSCLC = test system: HOP-62 NSCLC
HOP-92 NSCLC = test system: HOP-92 NSCLC
NCI-H23 lung = test system: NCI-H23 lung
SF-295 CNS = test system: SF-295 CNS

CC(C)=CCc1c2c(c(O)c3c1O[C@]14C(=C[C@@H]5C[C@H]1C(C)(C)O[C@@]4(C/C=C(/C)C(=O)O)C5=O)C3=O)C=CC(C)(C)O2
GI50 (OVCAR-4 ovarian): 15.6 µM
TGI (OVCAR-4 ovarian): 36.8 µM
GI50 (M14 melanoma): 12.8 µM
TGI (M14 melanoma): 29.5 µM
GI50 (LOX IMVI melanoma): 3.51 µM
TGI (LOX IMVI melanoma): 14.4 µM
GI50 (PC-3 prostate): 14 µM
TGI (PC-3 prostate): 31.1 µM
GI50 (IGROV1 ovarian): 4.64 µM
TGI (IGROV1 ovarian): 17.7 µM
GI50 (SK-OV-3 ovarian): 24.7 µM
TGI (SK-OV-3 ovarian): 51.3 µM
GI50 (EKVX NSCLC): 17.2 µM
TGI (EKVX NSCLC): 41.4 µM
GI50 (HL-60(TB) leukemia): 12 µM
TGI (HL-60(TB) leukemia): 43.2 µM
GI50 (OVCAR-3 ovarian): 10.2 µM
TGI (OVCAR-3 ovarian): 22 µM
GI50 (NCI-H522 lung): 16 µM
TGI (NCI-H522 lung): 30.3 µM
GI50 (SNB-75 CNS): 13.9 µM
TGI (SNB-75 CNS): 32.4 µM
GI50 (COLO 205 colon): 17 µM
TGI (COLO 205 colon): 37.9 µM
GI50 (MDA-MB-435): 14.3 µM
TGI (MDA-MB-435): 29.5 µM
GI50 (SK-MEL-28 melanoma): 15 µM
TGI (SK-MEL-28 melanoma): 30.1 µM
GI50 (OVCAR-5 ovarian): 17.6 µM
TGI (OVCAR-5 ovarian): 36.3 µM
GI50 (U251 CNS): 10.4 µM
TGI (U251 CNS): 22.6 µM
GI50 (SK-MEL-5 melanoma): 16.4 µM
TGI (SK-MEL-5 melanoma): 30.7 µM
GI50 (786-0 renal): 4.27 µM
TGI (786-0 renal): 16.4 µM
GI50 (HCT-15 colon): 6.65 µM
TGI (HCT-15 colon): 33.8 µM
GI50 (MALME-3M melanoma): 13.1 µM
TGI (MALME-3M melanoma): 27.8 µM
GI50 (K-562 leukemia): 6.43 µM
TGI (K-562 leukemia): > 100 µM
GI50 (MCF7 breast): 5.59 µM
TGI (MCF7 breast): 42.4 µM
GI50 (MOLT-4 leukemia): 14.3 µM
TGI (MOLT-4 leukemia): 63 µM
GI50 (SN12C renal): 17.5 µM
TGI (SN12C renal): 46.3 µM
GI50 (OVCAR-8 ovarian): 12.7 µM
TGI (OVCAR-8 ovarian): 33.6 µM
GI50 (SNB-19 CNS): 17.2 µM
TGI (SNB-19 CNS): 33.6 µM
GI50 (T-47D breast): 10 µM
TGI (T-47D breast): 31.1 µM
GI50 (DU-145 prostate): 15.6 µM
TGI (DU-145 prostate): 29 µM
GI50 (RXF 393 renal): 12.6 µM
TGI (RXF 393 renal): 28.2 µM
GI50 (ACHN renal): 12.2 µM
TGI (ACHN renal): 25.7 µM
GI50 (UO-31 renal): 9.78 µM
TGI (UO-31 renal): 23.1 µM
GI50 (UACC-257 melanoma): 12.7 µM
TGI (UACC-257 melanoma): 28 µM
GI50 (HCT-116 colon): 11.4 µM
TGI (HCT-116 colon): 24.2 µM
GI50 (HT29 colon): 12.9 µM
TGI (HT29 colon): 32.6 µM
GI50 (NCI/ADR-RES ovarian): 21.3 µM
TGI (NCI/ADR-RES ovarian): 75.3 µM
GI50 (SF-268 CNS): 15.4 µM
TGI (SF-268 CNS): 31.4 µM
GI50 (SK-MEL-2 melanoma): 18.1 µM
TGI (SK-MEL-2 melanoma): 38.5 µM
GI50 (SW-620 colon): 4.06 µM
TGI (SW-620 colon): 17.4 µM
GI50 (NCI-H460 lung): 15.8 µM
TGI (NCI-H460 lung): 32.1 µM
GI50 (KM12 colon): 16.7 µM
TGI (KM12 colon): 33.5 µM
GI50 (SF-539 CNS): 16.5 µM
TGI (SF-539 CNS): 35.1 µM
GI50 (CAKI-1 renal): 16.6 µM
TGI (CAKI-1 renal): 32.1 µM
GI50 (BT-549 breast): 14.4 µM
TGI (BT-549 breast): 29.1 µM
GI50 (RPMI-8226 leukemia): 3.19 µM
TGI (RPMI-8226 leukemia): 13.9 µM
GI50 (HS 578T breast): 17.3 µM
TGI (HS 578T breast): 58.9 µM
GI50 (UACC-62 melanoma): 15.3 µM
TGI (UACC-62 melanoma): 32.2 µM
GI50 (MDA-MB-231 breast): 13.2 µM
TGI (MDA-MB-231 breast): 33.7 µM
GI50 (A549 NSCLC): 20.9 µM
TGI (A549 NSCLC): 45.6 µM
GI50 (CCRF-CEM leukemia): 0.987 µM
TGI (CCRF-CEM leukemia): 23.4 µM
GI50 (TK-10 renal): 18 µM
TGI (TK-10 renal): 32.3 µM
GI50 (HCC-2998 colon): 18.5 µM
TGI (HCC-2998 colon): 35.9 µM
GI50 (SR leukemia): 3.13 µM
TGI (SR leukemia): > 100 µM
GI50 (NCI-H226 lung): 21.7 µM
TGI (NCI-H226 lung): 50.2 µM
GI50 (HOP-62 NSCLC): 15.4 µM
TGI (HOP-62 NSCLC): 31.5 µM
GI50 (HOP-92 NSCLC): 11.7 µM
TGI (HOP-92 NSCLC): 26.7 µM
GI50 (NCI-H23 lung): 19.6 µM
TGI (NCI-H23 lung): 49.4 µM
GI50 (SF-295 CNS): 17.7 µM
TGI (SF-295 CNS): 36.5 µM
